Assay results from US11667621B2, “Antiestrogen compounds” (STEVENS INSTITUTE OF TECHNOLOGY, priority 2018, dated 2023).
Where a chain is given by its changes, count along the chain named.

What was measured:
[1] = molecular target: T1, HA-ERα D538G (Homo sapiens, UniProt P03372, D538G); assay: Luciferase assay, overexpressed ER (3×-ERE-TATA-Luciferase reporter); type: cell-based; conditions: for inhibition at 1 µM: compound concentration 1 μM, 24 hours
T1 construct: HA; expressed in transfected cells
T1 sequence (P03372 1-595 D538G): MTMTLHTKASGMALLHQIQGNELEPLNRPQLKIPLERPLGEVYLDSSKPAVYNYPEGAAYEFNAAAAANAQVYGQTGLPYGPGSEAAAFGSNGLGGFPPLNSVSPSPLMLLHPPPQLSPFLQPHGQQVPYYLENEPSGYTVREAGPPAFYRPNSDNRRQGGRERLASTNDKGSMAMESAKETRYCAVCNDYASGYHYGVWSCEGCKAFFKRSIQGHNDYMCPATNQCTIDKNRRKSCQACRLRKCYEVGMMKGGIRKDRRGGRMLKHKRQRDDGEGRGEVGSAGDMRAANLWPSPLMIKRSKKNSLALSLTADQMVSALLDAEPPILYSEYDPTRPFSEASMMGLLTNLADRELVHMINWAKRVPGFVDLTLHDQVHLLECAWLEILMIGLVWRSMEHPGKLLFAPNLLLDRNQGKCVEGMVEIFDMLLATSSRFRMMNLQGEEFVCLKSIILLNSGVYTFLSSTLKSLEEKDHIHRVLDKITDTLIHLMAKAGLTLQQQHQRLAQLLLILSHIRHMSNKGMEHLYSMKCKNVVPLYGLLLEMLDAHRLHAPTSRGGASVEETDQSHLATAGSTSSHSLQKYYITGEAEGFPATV
Method: (§1) Luciferase assays were performed to determine the efficacy of the example compounds at inhibiting ER or its mutants' ability to activate transcription of genes.
(§2) Cells were plated at a density of 0.15×10^6 per well of 24 well plates one day prior to transfection. Cells were transfected with 125 ng (per well) of HA-ERα wild type or mutants, 315 ng (per well) of 3×-ERE-TATA-Luciferase reporter and 50 ng (per well) of pRL-TK Renilla Luciferase plasmid, using Xtremegene (Roche). The cells were treated with the various compounds or Fulvestrant at the indicated doses a day after transfection for 24 hours and luciferase activities were determined using the Dual-Luciferase® Reporter Assay System (Promega) according to manufacturer's instructions. Luciferase bioluminescence measurements were performed with the Veritas™ Microplate Luminometer (Promega). All experiments were conducted in triplicate and the Firefly luciferase activity was normalized with the Renilla luciferase activity of each sample.

[2] = molecular target: T2, HA-ERα L536R (Homo sapiens, UniProt P03372, L536R); assay: as above; type: cell-based; conditions: for inhibition at 1 µM: compound concentration 1 μM, 24 hours
T2 construct: HA; expressed in transfected cells
T2 sequence (P03372 1-595 L536R): T1 sequence (P03372 1-595 D538G) with L536R, G538D
Method: as §1, §2

[3] = molecular target: T3, HA-ERα Y537S (Homo sapiens, UniProt P03372, Y537S); assay: as above; type: cell-based; conditions: for inhibition at 1 µM: compound concentration 1 μM, 24 hours
T3 construct: HA; expressed in transfected cells
T3 sequence (P03372 1-595 Y537S): T1 sequence (P03372 1-595 D538G) with Y537S, G538D
Method: as §1, §2

[4] = molecular target: T4, HA-ERα wild type (Homo sapiens, UniProt P03372); assay: as above; type: cell-based; conditions: for inhibition at 1 µM: compound concentration 1 μM, 24 hours, read-out: Overexpressed ER (% Inhibition) WT
T4 construct: HA; expressed in transfected cells
T4 sequence (P03372 1-595): T1 sequence (P03372 1-595 D538G) with G538D
Method: as §1, §2

[5] = tested on: D538G cl. 65; assay: Cell proliferation assay (Resazurin); type: cell-based
Method: (§3) Cell proliferation assays were performed to determine the efficacy of the compounds at inhibiting ER or its mutants' ability at promoting cell proliferation.
(§4) Cells were plated at 1500 cells/well into 96-well culture plates in regular media, treated with the indicated doses of the compounds or Fulvestrant the next day and incubated in a humidified incubator with 5% CO2 at 37° C. They were assayed for cell proliferation at Day 0, 3, 5 and 7 using the Resazurin reagent (R&D Systems), which upon addition, culture plates were incubated at 37° C. incubator for 4 hours before their fluorescence were read at 560 nm excitation and 590 nm emission wavelengths with a microtiter plate reader (Molecular Devices).

[6] = tested on: MCF7; assay: Cell proliferation assay (Resazurin); type: cell-based; conditions: Homo sapiens
Method: as §3, §4

[7] = tested on: Y537S cl. 24; assay: Cell proliferation assay (Resazurin); type: cell-based
Method: as §3, §4

[8] = molecular target: T5, full length human estrogen receptor a (Homo sapiens, UniProt P03372); assay: Competitive radiometric binding assay (RBA), tritiated estradiol tracer; conditions: relative to estradiol = 100; average SD of 2-3 determinations
T5 construct: purified, full-length human estrogen receptor a from Invitrogen; purchased Invitrogen
T5 sequence (P03372 1-595): T1 sequence (P03372 1-595 D538G) with G538D
Method: Tritiated estradiol was obtained from Perkin Elmer and purified, full-length human estrogen receptor a from Invitrogen.
Competitive radiometric binding assays (RBA) were performed on 96-well microtiter filter plates (Millipore), using full length human estrogen receptor a, with tritiated estradiol as tracer, as previously described (Carlson K E, Choi I, Gee A, Katzenellenbogen B S, Katzenellenbogen J A. Altered ligand binding properties and enhanced stability of a constitutively active estrogen receptor: evidence that an open pocket conformation is required for ligand interaction. Biochemistry 1997, 36(48), 14897-14905). After incubation on ice for 18-24 h, ERα-bound tracer was absorbed onto hydroxyapatite (BioRad), washed with buffer, and measured by scintillation counting. RBA values are the average SD of 2-3 determinations.

[9] = Cell proliferation assay (WST-1), 6-day exposure; type: cell-based; conditions: 144 h, read-out: Antiproliferation IC50
Method: Cell proliferation assay: WST-1 assay (Roche, Basel, Switzerland) was used to quantify cell viability after a 6-day exposure to compounds, as described in Gong et al. Mol. Cell. Endocrinol. 2016, 437, 190-200. Absorbance was measured at 450 nm using a VICTOR X5 PerkinElmer 2030 Multilabel Plate Reader, and cell proliferation values represent signal from compound-treated samples relative to vehicle-treated controls. All assays were performed in triplicate, and the values shown are the average SD of 2-3 independent experiments.

Row | Structure (SMILES) | inhibition at 1 µM [1] | inhibition at 1 µM [2] | inhibition at 1 µM [3] | inhibition at 1 µM [4] | RBA (estradiol = 100) [8] | IC50 [9] | other results
1 | O=C(NCCCOc1ccc(C(=C2C3CC4CC(C3)CC2C4)c2ccc(O)cc2)cc1)C12CC3CC(CC(C3)C1)C2 [Example 5, N-(3-(4-(Adamantan-2-ylidene(4-hydroxyphenyl)methyl)phenoxy)propyl)-adamantane-1-carboxamide] |  |  |  |  | 26 ± 6 | 9 nM | 
2 | CC(C)(C)OC(=O)N[C@@H](Cc1ccccc1)C(=O)NCCCCOc1ccc(C(=C2C3CC4CC(C3)CC2C4)c2ccc(O)cc2)cc1 [Example 3, (S)-tert-Butyl(1-((4-(4-(adamantan-2-ylidene(4-hydroxyphenyl)methyl)-phenoxy)butyl)amino)-1-oxo-3-phenylpropan-2-yl)carbamate] |  |  |  |  | 14 ± 4 | 7 nM | 
3 | CC(C)C[C@H](NC(=O)OC(C)(C)C)C(=O)NCCCCOc1ccc(C(=C2C3CC4CC(C3)CC2C4)c2ccc(O)cc2)cc1 [Example 2, (S)-tert-Butyl (1-((4-(4-(adamantan-2-ylidene(4-hydroxyphenyl)methyl)-phenoxy)butyl)amino)-4-methyl-1-oxopentan-2-yl)carbamate] |  |  |  |  | 14 ± 1 | 36 nM | 
4 | O=C(NCCOc1ccc(C(=C2C3CC4CC(C3)CC2C4)c2ccc(O)cc2)cc1)C12CC3CC(CC(C3)C1)C2 [Example 4, N-(2-(4-(Adamantan-2-ylidene(4-hydroxyphenyl)methyl)phenoxy)ethyl)-adamantane-1-carboxamide] |  |  |  |  | 21 ± 6 | 17 nM | 

Further lines, with some results ahead:

Row | inhibition at 1 µM [1] | inhibition at 1 µM [2] | inhibition at 1 µM [3] | inhibition at 1 µM [4] | RBA (estradiol = 100) [8] | Structure (SMILES) | IC50 [9] | other results
5 | 95% | 94% | 95% | 96% |  | O=C(NCCCCOc1ccc(Oc2c(-c3ccc(O)cc3)sc3cc(O)ccc23)cc1)[C@H]1CC[C@H](C(F)(F)F)CC1 [Example 17, (trans)-N-(4-(4-((6-Hydroxy-2-(4-hydroxyphenyl)benzo[b]thiophen-3-yl)oxy)phenoxy)butyl)-4-(trifluoromethyl)cyclohexanecarboxamide] |  | IC90 ([1]; luciferase assay, Table 4): 175 nM; IC90 ([2]; luciferase assay, Table 4): 124 nM; IC90 ([3]; luciferase assay, Table 4): 464 nM; IC90 ([4]; luciferase assay, Table 4): 19 nM; IC90 [5]: 315 nM; IC90 [6]: 22.1 nM; IC90 [7]: 304 nM
6 | 61% | 64% | -65% | 81% |  | O=C(COc1cccc2c1C(=O)N(C1CCC(=O)NC1=O)C2=O)NCCCCCCOc1ccc(C(=C2C3CC4CC(C3)CC2C4)c2ccc(O)cc2)cc1 (stereo not shown) [Example 16, N-(6-(4-(Adamantan-2-ylidene(4-hydroxyphenyl)methyl)phenoxy)hexyl)-2-((2-(2,6-dioxopiperidin-3-yl)-1,3-dioxoisoindolin-4-yl)oxy)acetamide] |  | 
7 | -7% | -75% | -160% | -83% |  | O=C(NCCCCOc1ccc(C(=C2CCCCC2)c2ccc(O)cc2)cc1)C1CCC1 [Example 24, N-(4-(4-(Cyclohexylidene(4-hydroxyphenyl)methyl)phenoxy)-butyl)cyclobutanecarboxamide] |  | 
8 | 65% | 69% | -32% | 52% |  | O=C(NCCCCOc1ccc(C(=C2CCCCC2)c2ccc(O)cc2)cc1)C12CC3CC(CC(C3)C1)C2 [Example 26, N-(4-(4-(Cyclohexylidene(4-hydroxyphenyl)methyl)phenoxy)-butyl)adamantane-1-carboxamide] |  | 
